Results taken from US6010851A, “Method for producing nucleoside-5'-phosphate ester” (Ajinomoto Co., Inc., priority 1995, dated 2000).
Read-outs that look alike come from different tables or passages of the source.

How the values were obtained:
[1] = biological target: T1, acid phosphatase sample derived from Morganella morganii (Morganella morganii, UniProt P28581); test: Production of 5'-inosinic acid from various phosphate group donors by acid phosphatase sample; assay type: biochemical, Morganella morganii NCIMB 10466; conditions: inosine 2 g/dl, phosphate group donor 10 g/dl, enzyme 50 units/dl, pH 4.0, 30° C., 3 hours
T1 construct: homo-oligomer; signal peptide removed
Procedure: (§1) The reaction mixture was incubated at 30° C. for 3 hours while maintaining pH at 4.0.

[2] = system: Escherichia coli JM109/pMPI530; test: Production of 5'-inosinic acid from various phosphate group donors by microbial cells of the mutant strain; assay type: cell-based; conditions: inosine 6 g/dl, phosphate group donor 10 g/dl, cells 100 mg/dl dry weight, buffer pH 4.5, pH maintained at 4.0, 30° C., 22 hours
Source text: (§2) 5'-Inosinic acid was efficiently produced and accumulated by using any of the phosphate group donors. However, the accumulated amount of 5'-inosinic acid was the highest when polyphosphoric acid was used as the phosphate group donor.

[3] = system: Escherichia coli JM109/pEPI330; test: as above; assay type: cell-based; conditions: inosine 6 g/dl, phosphate group donor 12 g/dl, cells 200 mg/dl dry weight, pH 4.0, 35° C., 32 hours
Source text: as §2

[4] = biological target: T2, acid phosphatase sample derived from Escherichia blattae (Shimwellia blattae, UniProt I2BB71); test: Production of 5'-inosinic acid from various phosphate group donors by acid phosphatase sample; assay type: biochemical, Escherichia blattae JCM 1650; conditions: inosine 2 g/dl, phosphate group donor 10 g/dl, enzyme 50 units/dl, pH 4.0, 35° C., 3 hours
T2 construct: homo-oligomer; signal peptide removed
Procedure: The reaction miture was incubated at 35° C. for 3 hours while maintaining pH at 4.0.

[5] = biological target: T2, acid phosphatase sample derived from Escherichia blattae; test: Phosphorylation reaction of various nucleosides by acid phosphatase sample; assay type: biochemical, Escherichia blattae JCM 1650; conditions: sodium pyrophosphate 15 g/dl, enzyme 50 units/dl, 3 hours; for Produced amount of nucleoside-5'-ester: nucleoside 3 g/dl, pH 4.0, 35° C.
Procedure: (§3) Incidentally, in the reaction to produce nucleoside-5'-phosphate esters using nucleosides other than inosine as raw materials, the nucleosides as raw materials and produced nucleoside-5'-phosphate esters were analyzed by HPLC as described above.
(§4) Sodium pyrophosphate (15 g/dl) and inosine (3 g/dl) were dissolved in sodium acetate buffers each having pH of 5.5, 5.0, 4.5, 4.0, and 3.5, to which the enzyme sample described above was added so that a concentration of 50 units/dl was obtained. […] Produced inosinic acid contained only 5'-inosinic acid. By-production of 2'-inosinic acid and 3'-inosinic acid was not observed at all. The velocity of 5'-inosinic acid production was maximum at pH 5.0. However, the maximum accumulated amount of 5'-inosinic acid was higher at lower pH. The reaction condition at pH 4.0 was most efficient for production of 5'-inosinic acid. 5'-Inosinic acid was produced and accumulated in an amount of 1.56 g/dl by performing the reaction at 30° C. at pH 4.0 for 3 hours.
The reaction mixture was incubated at 35° C. for 3 hours while maintaining pH at 4.0.

[6] = system: Escherichia coli JM109/pMPI530; test: Production of various nucleoside-5'-phosphate esters by microbial cells of the mutant strain; assay type: cell-based; conditions: sodium pyrophosphate 12 g/dl, nucleoside 6 g/dl, cells 100 mg/dl dry weight, pH 4.0, 30° C., 22 hours
Source text: (§5) Produced nucleotide contained only nucleoside-5'-phosphate ester. By-production of nucleoside-2'-phosphate ester and nucleoside-3'-phosphate ester was not observed at all.

[7] = system: Escherichia coli JM109/pEPI330; test: as above; assay type: cell-based; conditions: sodium pyrophosphate 12 g/dl, nucleoside 6 g/dl, cells 200 mg/dl dry weight, pH 4.0, 35° C., 32 hours
Source text: as §5

[8] = biological target: T1, acid phosphatase sample derived from Morganella morganii; test: Phosphorylation reaction of various nucleosides by acid phosphatase sample; assay type: biochemical, Morganella morganii NCIMB 10466; conditions: sodium pyrophosphate 10 g/dl, nucleoside 2 g/dl, enzyme 50 units/dl, pH 4.0, 30° C., 3 hours
Procedure: as §3
as §4, with “(10” for “(15”, “(2” for “(3”, “acid, in which 5'-inosinic” for “acid. 5'-Inosinic”, “2.60” for “1.56”, “reaction” for “reaction at 30° C. at pH 4.0”
as §1

[9] = biological target: T3, acid phosphatase derived from Escherichia blattae (Shimwellia blattae, UniProt I2BB71); assay type: biochemical, Escherichia blattae JCM 1650
T3 construct: homo-oligomer; 18-residue signal peptide removed
T3 sequence (I2BB71 19-249): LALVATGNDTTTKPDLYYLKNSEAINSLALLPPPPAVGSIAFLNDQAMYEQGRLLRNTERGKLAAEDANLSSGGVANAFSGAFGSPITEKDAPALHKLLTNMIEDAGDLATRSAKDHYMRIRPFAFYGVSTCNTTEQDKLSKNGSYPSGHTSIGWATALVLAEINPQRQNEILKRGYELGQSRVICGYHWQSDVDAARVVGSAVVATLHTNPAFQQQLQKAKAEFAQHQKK

[10] = biological target: T4, acid phosphatase derived from Morganella morganii (Morganella morganii, UniProt P28581); assay type: biochemical
T4 construct: homo-oligomer of about 25 kDa subunits; 20-residue signal peptide removed
T4 sequence (P28581 21-249): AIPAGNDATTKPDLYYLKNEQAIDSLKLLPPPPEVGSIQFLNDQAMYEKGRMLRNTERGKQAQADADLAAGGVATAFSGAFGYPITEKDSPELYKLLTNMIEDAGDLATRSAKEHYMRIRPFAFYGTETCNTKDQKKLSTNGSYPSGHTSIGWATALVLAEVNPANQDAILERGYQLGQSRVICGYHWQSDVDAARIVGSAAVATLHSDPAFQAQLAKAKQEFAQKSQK

[11] = Properties of the purified acid phosphatase derived from Morganella morganii; set-up: species or system Morganella morganii NCIMB 10466
Procedure: A nutrient medium (pH 7.0, 50 ml) containing 1 g/dl of peptone, 0.5 g/dl of yeast extract, and 1 g/dl of sodium chloride was poured into Sakaguchi flasks (500 ml), which was sterilized at 120° C. for 20 minutes. A slant culture of Morganella morganii NCIMB 10466 was inoculated to each of the flasks once with a platinum loop, which was cultivated at 30° C. for 16 hours with shaking. Microbial cells (about 3,000 g), which were harvested from a culture by centrifugation, were suspended in 100 mM potassium phosphate buffer (1 L, pH 7.0). A ultrasonic treatment was performed at 4° C. for 20 minutes to disrupt the microbial cells. The treated suspension was centrifuged to remove its insoluble fraction. Thus a cell-free extract was prepared.
The purified enzyme had the following properties.

[12] = Phosphomonoesterase activity (inosine produced by hydrolysis of 5'-inosinic acid); assay type: biochemical; conditions: purified Morganella morganii enzyme
Procedure: The phosphomonoesterase activity was measured under the following condition using 5'-inosinic acid as a substrate. The reaction was performed at 30° C. for 10 minutes in a reaction solution (1 ml) containing 10 μmol/ml of 5'-inosinic acid, 100 μmol/ml of MES/NaOH buffer (pH 6.0), and an enzyme. The reaction was stopped by adding 200 μl of 2 N hydrochloric acid. After that, precipitates were removed by centrifugation. Then, inosine produced by the hydrolytic reaction was quantitatively measured. An amount of enzyme to produce 1 μmol of inosine per 1 minute under this standard reaction condition was defined as 1 unit.
Inosine and 5'-inosinic acid were analyzed under the following condition by means of high-performance liquid chromatography (HPLC).

[13] = purified Escherichia blattae enzyme
[14] = purified Morganella morganii enzyme

For sodium polyphosphate, the “Produced 5'-inosinic acid” value [1] was 2.72 g/dL, the “Produced 5'-inosinic acid” value [2] was 11.45 g/dL and the “Produced 5'-inosinic acid” value [3] was 8.84 g/dL. For the same molecule, the “Produced 5'-inosinic acid” value [4] was 1.79 g/dL.

With `Nc1ccn([C@@H]2O[C@H](CO)[C@@H](O)[C@H]2O)c(=O)n1` [Cytidine, cytidine] the “Produced amount of nucleoside-5'-ester” value [5] was 1.22 g/dL, the “Produced amount of nucleoside-5'-phosphate ester” value [6] was 7.82 g/dL and the “Produced amount of nucleoside-5'-phosphate ester” value [7] was 6.60 g/dL. For the same molecule, the “Produced amount of nucleoside-5'-ester” value [8] was 0.98 g/dL.

In the case of `O=c1ccn([C@@H]2O[C@H](CO)[C@@H](O)[C@H]2O)c(=O)[nH]1` [Uridine, uridine], the “Produced amount of nucleoside-5'-ester” value [5] is reported as 1.87 g/dL, the “Produced amount of nucleoside-5'-phosphate ester” value [6] is reported as 11.90 g/dL and the “Produced amount of nucleoside-5'-phosphate ester” value [7] is reported as 8.93 g/dL. For the same molecule, the “Produced amount of nucleoside-5'-ester” value [8] was 1.30 g/dL.

For `[Ag+2]` [Ag^2+], the “Effect of the addition of metal ion and inhibitor on enzyme activity” value [9, 13] was “inhibited” and the “Effect of the addition of metal ion and inhibitor on enzyme activity” value [10, 14] was “inhibited”.

With `O=C(O)CI` [iodoacetic acid] the “Effect of the addition of metal ion and inhibitor on enzyme activity” value [9] was “inhibited” and the “Effect of the addition of metal ion and inhibitor on enzyme activity” value [10] was “inhibited”.

With `[Cu+2]` [Cu^2+] the “Effect of the addition of metal ion and inhibitor on enzyme activity” value [9, 13] was “inhibited” and the “Effect of the addition of metal ion and inhibitor on enzyme activity” value [10, 14] was “inhibited”.

With `[Pb+2]` [Pb^2+] the “Effect of the addition of metal ion and inhibitor on enzyme activity” value [9, 13] was “inhibited” and the “Effect of the addition of metal ion and inhibitor on enzyme activity” value [10, 14] was “inhibited”.

In the case of `OC[C@H]1O[C@@H](n2cnc3c(O)ncnc32)[C@H](O)[C@@H]1O` [Inosine, inosine], the “5'-inosinic acid produced and accumulated” value ([5]; inosine 3 g/dl, pH 4.0, 30° C.) is reported as 1.56 g/dL, the “Produced amount of nucleoside-5'-ester” value [5] is reported as 1.56 g/dL and the “Produced amount of nucleoside-5'-phosphate ester” value [6] is reported as 10.01 g/dL. The “Produced amount of nucleoside-5'-phosphate ester” value [7] was 7.45 g/dL and the “Produced amount of nucleoside-5'-ester” value [8] was 2.60 g/dL.

In the case of `O=P([O-])([O-])Oc1ccccc1.[Na+].[Na+]` [Disodium phenylphosphate, disodium phenylphosphate], the “Produced 5'-inosinic acid” value [1] is reported as 2.33 g/dL, the “Produced 5'-inosinic acid” value [2] is reported as 9.62 g/dL and the “Produced 5'-inosinic acid” value [3] is reported as 7.60 g/dL. The “Produced 5'-inosinic acid” value [4] was 1.50 g/dL.

With `[Fe+2]` [Fe^2+] the “Effect of the addition of metal ion and inhibitor on enzyme activity” value [9, 13] was “inhibited”.

With `NC(=O)OP(=O)([O-])[O-].[Na+].[Na+]` [Disodium carbamyl phosphate, disodium carbamyl phosphate] the “Produced 5'-inosinic acid” value [1] was 2.54 g/dL, the “Produced 5'-inosinic acid” value [2] was 9.89 g/dL and the “Produced 5'-inosinic acid” value [3] was 7.73 g/dL. For the same molecule, the “Produced 5'-inosinic acid” value [4] was 1.53 g/dL.

With `[Hg+2]` [Hg^2+] the “Effect of the addition of metal ion and inhibitor on enzyme activity” value [9, 13] was “inhibited” and the “Effect of the addition of metal ion and inhibitor on enzyme activity” value [10, 14] was “inhibited”.

In the case of `Nc1nc2c(ncn2[C@@H]2O[C@H](CO)[C@@H](O)[C@H]2O)c(=O)[nH]1` [Guanosine, guanosine], the “Produced amount of nucleoside-5'-ester” value [5] is reported as 1.05 g/dL, the “Produced amount of nucleoside-5'-phosphate ester” value [6] is reported as 6.72 g/dL and the “Produced amount of nucleoside-5'-phosphate ester” value [7] is reported as 4.77 g/dL. The “Produced amount of nucleoside-5'-ester” value [8] was 1.90 g/dL.

With `O=P(O)(O)OP(=O)(O)OP(=O)(O)O` [Sodium tripolyphosphate, sodium tripolyphosphate] the “Produced 5'-inosinic acid” value [1] was 2.10 g/dL, the “Produced 5'-inosinic acid” value [2] was 8.93 g/dL and the “Produced 5'-inosinic acid” value [3] was 5.96 g/dL. For the same molecule, the “Produced 5'-inosinic acid” value [4] was 1.20 g/dL.

B1: acid phosphatase derived from Morganella morganii: enzyme purified from cell-free extract of Morganella morganii NCIMB 10466; mature protein SEQ ID NO: 4 (protein)
chain: AIPAGNDATTKPDLYYLKNEQAIDSLKLLPPPPEVGSIQFLNDQAMYEKGRMLRNTERGKQAQADADLAAGGVATAFSGAFGYPITEKDSPELYKLLTNMIEDAGDLATRSAKEHYMRIRPFAFYGTETCNTKDQKKLSTNGSYPSGHTSIGWATALVLAEVNPANQDAILERGYQLGQSRVICGYHWQSDVDAARIVGSAAVATLHSDPAFQAQLAKAKQEFAQKSQK
In the case of B1, the Optimum temperature [11] is reported as “about 35 °C”, the “Optimum pH” value ([11]; phosphate ester hydrolytic reaction) is reported as 6.5 and the “Optimum pH” value ([11]; transphosphorylation reaction) is reported as 5.2. The Temperature stability ([11]; treatment at pH 7.0 for 30 minutes) was “up to 30 °C” and the “phosphate ester hydrolytic activity (phosphomonoestrase activity) relative to transphosphorylation activity” value [12] was “not less than 20 times”.
